In brackets after ≈: the same amount, converted by molar mass.
Key:
[1] = system: Haemophilus influenzae (Isolate ID ATCC 49247); assay: Antibacterial activity, MIC, H. influenzae; format: cell-based; settings: Gram negative strain, broth microdilution or agar dilution; for MIC: Haemophilus influenzae, ATCC49247
In short: (§1)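 Per CLSI standard M7-A7, minimum inhibitory concentrations were measured by agar dilution or by broth microdilution.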

[2] = system: Streptococcus pyogenes (Isolate ID ATCC 51339); assay: Antibacterial activity, MIC, S. pyogenes; format: cell-based; settings: broth microdilution or agar dilution; for MIC: Streptococcus pyogenes, ATCC51339, Gram positive strain
In short: as §1

[3] = system: Enterococcus faecalis (Isolate ID ATCC 29212); assay: Antibacterial activity, MIC, E. faecalis; format: cell-based; settings: Gram positive strain, broth microdilution or agar dilution; for MIC: Enterococcus faecalis, ATCC29212
In short: as §1

physchem = settings: for solubility at 24 h: kinetic from dmso stock
In short: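 DMSO doubling dilutions were diluted twenty-fold into 100 mM citrate (pH 4), PBS (pH 7.4) or carbonate-bicarbonate (pH 9). After 24 h equilibration at room temperature, absorbance was read at 620 nm. The reported value is the highest concentration without measurable precipitate.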

[4] = system: Staphylococcus aureus (Isolate ID ATCC 29213); assay: Antibacterial activity, MIC, S. aureus; format: cell-based; settings: broth microdilution or agar dilution; for MIC: Staphylococcus aureus, ATCC29213, Gram positive strain
In short: as §1

[5] = pH 7.4, aqueous buffer, Solubility (pH 7.4)
[6] = pH 7.4, aqueous buffer, Solubility Range
[7] = pH 9, aqueous buffer, Max Solubility
[8] = pH 9, aqueous buffer, Solubility Range (maximum solubility)
[9] = pH 7.4, aqueous buffer, Max Solubility
[10] = pH 7.4, aqueous buffer, Solubility Range (maximum solubility)

| SMILES | MIC [1] | MIC [2] | MIC [3] | solubility at 24 h (physchem; [5]) | solubility at 24 h (physchem; [6]) | solubility at 24 h (physchem; [7]) | solubility at 24 h (physchem; [8]) | MIC [4] | solubility at 24 h (physchem; [9]) | solubility at 24 h (physchem; [10]) | Antibacterial Activity (MIC) H. influenzae (ATCC 49247) [1] | Antibacterial Activity (MIC) S. pyogenes (ATCC 51339) ([2]; Gram positive strain) | Antibacterial Activity (MIC) E. faecalis (ATCC 29212) [3] | Max Solubility (physchem; pH 4) | Solubility (pH 7.4) (physchem; pH 7.4) | Antibacterial Activity (MIC) S. aureus (ATCC 29213) ([4]; Gram positive strain) |
| --- | --- | --- | --- | --- | --- | --- | --- | --- | --- | --- | --- | --- | --- | --- | --- | --- |
| CCNC(=O)Nc1nc2cc(-c3cnc(N4CCC(C)(C(=O)O)CC4)nc3)cc(C#Cc3nnc(C)s3)c2s1 [Compound 153] | 1 to 16 µg/mL (≈ 1.78 to 28.4 µM) | 0.25 to 1 µg/mL (≈ 0.444 to 1.78 µM) | ≤ 0.25 µg/mL | 100 µg/mL (≈ 178 µM) | 12.5 to 400 µg/mL (≈ 22.2 to 711 µM) | 400 µg/mL (≈ 711 µM) | 400 to 800 µg/mL (≈ 711 to 1420 µM) | 0.25 to 1 µg/mL (≈ 0.444 to 1.78 µM) |  |  |  |  |  |  |  |  |
| CCNC(=O)Nc1nc2cc(-c3cnc(N4CCC(C)(C(=O)O)CC4)nc3)cc(C#Cc3ncccn3)c2s1 [Compound 154] | 1 to 16 µg/mL (≈ 1.84 to 29.5 µM) | 0.25 to 1 µg/mL (≈ 0.461 to 1.84 µM) | ≤ 0.25 µg/mL | 200 µg/mL (≈ 369 µM) | 12.5 to 400 µg/mL (≈ 23 to 737 µM) | 400 µg/mL (≈ 737 µM) | 400 to 800 µg/mL (≈ 737 to 1470 µM) | 1 to 16 µg/mL (≈ 1.84 to 29.5 µM) |  |  |  |  |  |  |  |  |
| CCNC(=O)Nc1nc2cc(-c3cnc(N4CCC(C)(C(=O)O)CC4)nc3)cc(C#Cc3ccncn3)c2s1 [Compound 155] | 1 to 16 µg/mL (≈ 1.84 to 29.5 µM) | 0.25 to 1 µg/mL (≈ 0.461 to 1.84 µM) | ≤ 0.25 µg/mL | 400 µg/mL (≈ 737 µM) | 400 to 800 µg/mL (≈ 737 to 1470 µM) | ≥ 800 µg/mL | > 800 µg/mL | 1 to 16 µg/mL (≈ 1.84 to 29.5 µM) |  |  |  |  |  |  |  |  |
| CCNC(=O)Nc1nc2cc(-c3cnc(N4CCC(C)(C(=O)O)CC4)nc3)cc(C#Cc3nccs3)c2s1 [Compound 156] | 1 to 16 µg/mL (≈ 1.83 to 29.2 µM) | ≤ 0.25 µg/mL | ≤ 0.25 µg/mL | ≥ 800 µg/mL | > 800 µg/mL |  |  | ≤ 0.25 µg/mL | ≥ 800 µg/mL | > 800 µg/mL |  |  |  |  |  |  |
| CCNC(=O)Nc1nc2cc(-c3cnc(N4CCC(C)(C(=O)O)CC4)nc3)cc(C#Cc3cnccn3)c2s1 [Compound 157] | 0.25 to 1 µg/mL (≈ 0.461 to 1.84 µM) | ≤ 0.25 µg/mL | ≤ 0.25 µg/mL | ≥ 800 µg/mL | > 800 µg/mL |  |  | ≤ 0.25 µg/mL | ≥ 800 µg/mL | > 800 µg/mL |  |  |  |  |  |  |
| CCNC(=O)Nc1nc2cc(-c3cnc(CN4CCC(C)(C(=O)O)CC4)nc3)cc(-c3ccccn3)c2s1 [Compound 160] | 1 to 16 µg/mL (≈ 1.88 to 30.1 µM) | 1 to 16 µg/mL (≈ 1.88 to 30.1 µM) | 1 to 16 µg/mL (≈ 1.88 to 30.1 µM) | ≥ 800 µg/mL | > 800 µg/mL |  |  | 1 to 16 µg/mL (≈ 1.88 to 30.1 µM) | ≥ 800 µg/mL | > 800 µg/mL |  |  |  |  |  |  |
| CCNC(=O)Nc1nc2cc(-c3cnc(N4CCCC4(C)C(=O)O)nc3)cc(-c3ccccn3)c2s1 (centres unmarked) [Compound 163] | 0.25 to 1 µg/mL (≈ 0.496 to 1.99 µM) | ≤ 0.25 µg/mL | ≤ 0.25 µg/mL | ≥ 800 µg/mL | > 800 µg/mL |  |  | 0.25 to 1 µg/mL (≈ 0.496 to 1.99 µM) | ≥ 800 µg/mL | > 800 µg/mL |  |  |  |  |  |  |
| CCNC(=O)Nc1nc2cc(-c3cnc(N4CCC(C(=O)O)(C(F)(F)F)C4)nc3)cc(-c3ccccn3)c2s1 (centres unmarked) [Compound 164] | > 16 µg/mL | 0.25 to 1 µg/mL (≈ 0.448 to 1.79 µM) | 1 to 16 µg/mL (≈ 1.79 to 28.7 µM) | ≥ 800 µg/mL | > 800 µg/mL |  |  | 1 to 16 µg/mL (≈ 1.79 to 28.7 µM) |  |  |  |  |  |  |  |  |
| CCNC(=O)Nc1nc2cc(-c3cnc(N4CC5CCCC5(C(=O)O)C4)nc3)cc(-c3ccccn3)c2s1 (centres unmarked) [Compound 165] | 1 to 16 µg/mL (≈ 1.89 to 30.2 µM) | ≤ 0.25 µg/mL | ≤ 0.25 µg/mL | ≥ 800 µg/mL | > 800 µg/mL |  |  | ≤ 0.25 µg/mL |  |  |  |  |  |  |  |  |
| CCNC(=O)Nc1nc2cc(-c3cnc(N4CCC(NC(=O)OC(C)(C)C)(C(=O)OC)CC4)nc3)cc(-c3ccccn3)c2s1 [Compound 167] | > 16 µg/mL | ≤ 0.25 µg/mL | ≤ 0.25 µg/mL | 12.5 µg/mL (≈ 19.8 µM) | 12.5 to 400 µg/mL (≈ 19.8 to 632 µM) |  |  | 1 to 16 µg/mL (≈ 1.58 to 25.3 µM) |  |  |  |  |  |  |  |  |
| CCNC(=O)Nc1nc2cc(-c3cnc(N4CCC(N)(C(=O)OC)CC4)nc3)cc(-c3ccccn3)c2s1 [Compound 168] | > 16 µg/mL | 1 to 16 µg/mL (≈ 1.88 to 30 µM) | ≤ 0.25 µg/mL | 25 µg/mL (≈ 46.9 µM) | 12.5 to 400 µg/mL (≈ 23.5 to 751 µM) |  |  | 0.25 to 1 µg/mL (≈ 0.469 to 1.88 µM) |  |  |  |  |  |  |  |  |
| CCNC(=O)Nc1nc2cc(-c3cnc(N4CCC(C)(C(=O)OC)CC4)nc3)cc(-c3ccccn3)c2s1 [Compound 169] | 1 to 16 µg/mL (≈ 1.88 to 30.1 µM) | ≤ 0.25 µg/mL | 0.25 to 1 µg/mL (≈ 0.47 to 1.88 µM) | 6.25 µg/mL (≈ 11.8 µM) | < 12.5 µg/mL |  |  | 1 to 16 µg/mL (≈ 1.88 to 30.1 µM) |  |  |  |  |  |  |  |  |
| CCNC(=O)Nc1nc2cc(-c3cnc(N4CCC(=O)C(C)(C(=O)OC)C4)nc3)cc(-c3ccccn3)c2s1 (centres unmarked) [Compound 170] | > 16 µg/mL | 0.25 to 1 µg/mL (≈ 0.458 to 1.83 µM) | ≤ 0.25 µg/mL | 6.25 µg/mL (≈ 11.5 µM) | < 12.5 µg/mL |  |  | 0.25 to 1 µg/mL (≈ 0.458 to 1.83 µM) |  |  |  |  |  |  |  |  |
| CCNC(=O)Nc1nc2cc(-c3cnc(N4CCC(C)(C(=O)OCC)CC4)nc3)cc(-c3ccccn3)c2s1 [Compound 171] | 1 to 16 µg/mL (≈ 1.83 to 29.3 µM) | ≤ 0.25 µg/mL | 0.25 to 1 µg/mL (≈ 0.458 to 1.83 µM) | 3.12 µg/mL (≈ 5.73 µM) | < 12.5 µg/mL |  |  | > 16 µg/mL |  |  |  |  |  |  |  |  |
| CCNC(=O)Nc1nc2cc(-c3cnc(N4CCC(O)C(C)(C(=O)OC)C4)nc3)cc(-c3ccccn3)c2s1 (centres unmarked) [Compound 172] | 1 to 16 µg/mL (≈ 1.83 to 29.2 µM) | ≤ 0.25 µg/mL | ≤ 0.25 µg/mL | 12.5 µg/mL (≈ 22.8 µM) | 12.5 to 400 µg/mL (≈ 22.8 to 730 µM) |  |  | 1 to 16 µg/mL (≈ 1.83 to 29.2 µM) |  |  |  |  |  |  |  |  |
| CCNC(=O)Nc1nc2cc(-c3cnc(N4CCC(O)(C(=O)OC)CC4)nc3)cc(-c3ccccn3)c2s1 [Compound 173] | 1 to 16 µg/mL (≈ 1.87 to 30 µM) | ≤ 0.25 µg/mL | ≤ 0.25 µg/mL | 50 µg/mL (≈ 93.7 µM) | 12.5 to 400 µg/mL (≈ 23.4 to 750 µM) |  |  | 0.25 to 1 µg/mL (≈ 0.469 to 1.87 µM) |  |  |  |  |  |  |  |  |
| CCNC(=O)Nc1nc2cc(-c3cnc(N4CCC(C#N)(C(=O)OCC)CC4)nc3)cc(-c3ccccn3)c2s1 [Compound 174] | > 16 µg/mL | 0.25 to 1 µg/mL (≈ 0.449 to 1.8 µM) | 0.25 to 1 µg/mL (≈ 0.449 to 1.8 µM) | 3.12 µg/mL (≈ 5.61 µM) | < 12.5 µg/mL |  |  | > 16 µg/mL |  |  |  |  |  |  |  |  |
| CCNC(=O)Nc1nc2cc(-c3cnc(N4CCC(OC)(C(=O)OC)CC4)nc3)cc(-c3ccccn3)c2s1 [Compound 175] | 1 to 16 µg/mL (≈ 1.83 to 29.2 µM) | ≤ 0.25 µg/mL | ≤ 0.25 µg/mL | 25 µg/mL (≈ 45.7 µM) | 12.5 to 400 µg/mL (≈ 22.8 to 730 µM) |  |  | 0.25 to 1 µg/mL (≈ 0.457 to 1.83 µM) |  |  |  |  |  |  |  |  |
| CCNC(=O)Nc1nc2cc(-c3cnc(N4CCC(C(=O)OCC)(S(C)(=O)=O)CC4)nc3)cc(-c3ccccn3)c2s1 [Compound 176] | > 16 µg/mL | 0.25 to 1 µg/mL (≈ 0.41 to 1.64 µM) | > 16 µg/mL | 100 µg/mL (≈ 164 µM) | 12.5 to 400 µg/mL (≈ 20.5 to 656 µM) |  |  | > 16 µg/mL |  |  |  |  |  |  |  |  |
| CCNC(=O)Nc1nc2cc(-c3cnc(N4CCC(Cc5ccccc5)(C(=O)OCC)CC4)nc3)cc(-c3ccccn3)c2s1 [Compound 177] | > 16 µg/mL | > 16 µg/mL | > 16 µg/mL | 12.5 µg/mL (≈ 20.1 µM) | 12.5 to 400 µg/mL (≈ 20.1 to 643 µM) |  |  | > 16 µg/mL |  |  |  |  |  |  |  |  |
| CCNC(=O)Nc1nc2cc(-c3cnc(N4CCC(C)(C(=O)OCC)CC4)nc3)cc(C3CCN(C(C)=O)CC3)c2s1 [Compound 178] |  |  |  |  |  |  |  |  |  |  | D (“D” activity >16 μg/mL) | C (“C” activity >1.0 μg/mL-16 μg/mL) | D (“D” activity >16 μg/mL) | 6.25 µg/mL | 3.125 μg/mL | D (“D” activity >16 μg/mL) |
| CCNC(=O)Nc1nc2cc(-c3cnc(N4CCC(C(=O)OC)(C(F)(F)F)C4)nc3)cc(-c3ccccn3)c2s1 (centres unmarked) [Compound 180] | > 16 µg/mL | 0.25 to 1 µg/mL (≈ 0.437 to 1.75 µM) | 0.25 to 1 µg/mL (≈ 0.437 to 1.75 µM) | 6.25 µg/mL (≈ 10.9 µM) | < 12.5 µg/mL |  |  | 1 to 16 µg/mL (≈ 1.75 to 28 µM) |  |  |  |  |  |  |  |  |

Source: patent US9181234B2, “Antibacterial compounds” (priority 2010, dated 2015)
